For 84 compounds, inhibition results are on record in ChEMBL document CHEMBL5390237, “Discovery of Selective Histone Deacetylase 1 and 2 Inhibitors: Screening of a Focused Library Constructed by Click Chemistry, Kinetic Binding Analysis, and Biological Evaluation” (J Med Chem, 2023).

Histone deacetylase 2, sequence (Q92769 whole entry): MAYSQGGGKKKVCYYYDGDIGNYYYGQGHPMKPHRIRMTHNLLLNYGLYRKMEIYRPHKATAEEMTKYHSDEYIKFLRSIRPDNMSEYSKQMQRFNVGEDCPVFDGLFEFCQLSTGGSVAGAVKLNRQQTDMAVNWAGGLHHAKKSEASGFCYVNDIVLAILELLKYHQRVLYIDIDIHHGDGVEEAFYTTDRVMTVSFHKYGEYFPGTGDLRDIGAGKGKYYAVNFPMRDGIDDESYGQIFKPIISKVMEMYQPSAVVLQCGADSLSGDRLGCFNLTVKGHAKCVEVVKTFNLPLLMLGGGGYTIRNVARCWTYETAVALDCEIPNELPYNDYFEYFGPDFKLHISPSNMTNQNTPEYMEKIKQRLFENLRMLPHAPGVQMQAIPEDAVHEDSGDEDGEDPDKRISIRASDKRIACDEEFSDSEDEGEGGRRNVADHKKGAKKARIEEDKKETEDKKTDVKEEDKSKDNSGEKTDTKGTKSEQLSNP

This assay has as its target Histone deacetylase 2 (Homo sapiens, UniProt Q92769). The experiment in a line: Inhibition of full-length recombinant human C-terminal GST tagged HDAC2 expressed in Sf9 insect cells using aminoluciferin peptide substrate at 100 nM preincubated for 3 hrs followed by substrate addition and measured after 30 mins by HDAC-Glo I/II chemiluminescence assay. Conditions: time 3.5 hrs.
In the case of `Cc1ccc(-n2cc(C(=O)Nc3cc(-c4ccc(F)cc4)ccc3N)nn2)cc1C`, the inhibition was 11%. On to `Nc1ccc(-c2ccccc2)cc1NC(=O)CCc1cn(CCc2ccc(C(F)(F)F)cc2)nn1`, for which the inhibition is 0%. Turning to `COc1ccc(CCn2cc(-c3ccc(C(=O)Nc4cc(-c5cccs5)ccc4N)s3)nn2)cc1`, the inhibition is 30%. Take `Nc1ccc(-c2cccs2)cc1NC(=O)CCc1cn(CCc2ccccc2[N+](=O)[O-])nn1`: the inhibition came out at 24%. For the compound `Nc1ccc(-c2cccs2)cc1NC(=O)c1ccc(-c2cn(-c3cccc4ccccc34)nn2)cc1`, the inhibition came to 0%. For the compound `Cc1cccc(CCn2cc(CCC(=O)Nc3cc(-c4ccsc4)ccc3N)nn2)c1`, the inhibition was 26%. For the compound `Nc1ccc(-c2ccccc2)cc1NC(=O)CCc1cn(CC23CC4CC(CC(C4)C2)C3)nn1`, the inhibition amounted to 0%. Turning to `CCc1ccc(Cn2cc(CCC(=O)Nc3cc(-c4cccs4)ccc3N)nn2)cc1`, the inhibition was 10%. For `Nc1ccc(-c2cccs2)cc1NC(=O)c1ccc(-c2cn(CCc3ccccn3)nn2)s1`, the inhibition came out at 71%. Take `Cc1csc(CCn2cc(CCC(=O)Nc3cc(-c4cccnc4)ccc3N)nn2)n1`: the inhibition worked out at 6%. Turning to `Nc1ccc(-c2ccc(F)cc2)cc1NC(=O)c1cn(CCc2ccccn2)nn1`, the inhibition amounted to 16%. Turning to `Cc1cccc(CCn2cc(C(=O)Nc3cc(-c4cccs4)ccc3N)nn2)c1`, the inhibition was 11%.

As to `Nc1ccc(-c2ccsc2)cc1NC(=O)CCc1cn(CCCCCCCC(=O)O)nn1`, the inhibition amounted to 1%. Next, `Nc1ccc(-c2ccsc2)cc1NC(=O)c1cn(Cc2cccc(C(=O)O)c2)nn1`: 0%; `Nc1ccc(-c2cccs2)cc1NC(=O)c1cccc(-c2cn(-c3ccc(O)cc3)nn2)c1`: 13%. Regarding `Nc1ccc(-c2cccs2)cc1NC(=O)CCc1cn(Cc2ccc3ccccc3n2)nn1`, the inhibition stood at 22%.

Regarding `Nc1ccc(-c2ccccc2)cc1NC(=O)CCc1cn(CCCCCCC(=O)O)nn1`, the inhibition worked out at 0%. In the case of `Nc1ccc(-c2ccsc2)cc1NC(=O)CCc1cn(Cc2nc3ccccc3[nH]2)nn1`, the inhibition came to 25%.

For the compound `Nc1ccc(-c2ccc(F)cc2)cc1NC(=O)CCc1cn(Cc2ccc(Oc3ccccc3)cc2)nn1`, the inhibition was found to be 0%.

Take `Nc1ccc(-c2ccccc2)cc1NC(=O)CCc1cn(-c2ccc(Br)cc2)nn1`: the inhibition was found to be 0%. Then `Nc1ccc(-c2ccc(F)cc2)cc1NC(=O)c1cn(CCc2cccc(Cl)c2)nn1`, with 0%; and `Nc1ccc(-c2cccs2)cc1NC(=O)c1ccc(-c2cn(CC(=O)Nc3ccc(F)cc3)nn2)s1`, with 23%. Turning to `Nc1ccc(-c2ccsc2)cc1NC(=O)c1cn(CCc2ccsc2)nn1`, the inhibition stood at 0%.

Take `Nc1ccc(-c2cccs2)cc1NC(=O)c1cccc(-c2cn(C[S+]([O-])c3ccccc3)nn2)c1` (centres undefined): the inhibition turned out to be 6%. Take `Nc1ccc(-c2cccnc2)cc1NC(=O)CCc1cn(CCCCCCCC(=O)O)nn1`: the inhibition is 0%. Then `Nc1ccc(-c2cccs2)cc1NC(=O)CCc1cn(Cc2nc3ccccc3[nH]2)nn1`, with 19%; and `Nc1ccc(-c2cccnc2)cc1NC(=O)CCc1cn(CS(=O)(=O)c2ccccc2)nn1`, with 4%; and `Nc1ccc(-c2ccc(F)cc2)cc1NC(=O)c1cn(-c2ccccc2-c2ccccc2)nn1`, with 19%.

With `Nc1ccc(-c2ccccc2)cc1NC(=O)c1cn(-c2ccc(O)cc2)nn1`, the inhibition was 0%. Consider `Nc1ccc(-c2ccsc2)cc1NC(=O)CCc1cn(Cc2cccc(C(=O)O)c2)nn1`, for which the inhibition was 0%. On to `Nc1ccc(-c2ccc(F)cc2)cc1NC(=O)CCc1cn(-c2ccc(I)cc2)nn1`, for which the inhibition came out at 0%.

As for `Cc1ccc(CCn2cc(C(=O)Nc3cc(-c4ccc(F)cc4)ccc3N)nn2)cc1`, the inhibition turned out to be 7%. Then `Nc1ccc(-c2cccs2)cc1NC(=O)c1cccc(-c2cn(CCC34CC5CC(CC(C5)C3)C4)nn2)c1`, with 9%; and `CCc1ccc(Cn2cc(C(=O)Nc3cc(-c4cccs4)ccc3N)nn2)cc1`, with 13%; and `Nc1ccc(-c2ccsc2)cc1NC(=O)CCc1cn(Cc2cc3ccccc3s2)nn1`, with 3%.

`Nc1ccc(-c2cccs2)cc1NC(=O)c1ccc(-c2cn(CCc3ccc(C(=O)O)cc3)nn2)s1`: the inhibition is 55%.

As to `Nc1ccc(-c2cccs2)cc1NC(=O)c1cccc(-c2cn(CCc3ccccc3[N+](=O)[O-])nn2)c1`, the inhibition was 0%. With `Nc1ccc(-c2cccs2)cc1NC(=O)c1ccc(-c2cn(Cc3ccc4ccccc4n3)nn2)cc1`, the inhibition was determined as 52%. Take `COc1ccc(Cn2cc(C(=O)Nc3cc(-c4ccsc4)ccc3N)nn2)cc1`: the inhibition was determined as 25%. As for `Nc1ccc(-c2ccsc2)cc1NC(=O)CCc1cn(-c2ccc(I)cc2)nn1`, the inhibition is 0%. On to `Nc1ccc(-c2ccccc2)cc1NC(=O)CCc1cn(Cc2cccc3ccccc23)nn1`, for which the inhibition worked out at 9%.

Take `Nc1ccc(-c2ccccc2)cc1NC(=O)c1cn(C[S+]([O-])c2ccccc2)nn1` (centres undefined): the inhibition amounted to 0%. Next, `Nc1ccc(-c2cccs2)cc1NC(=O)c1ccc(-c2cn(Cc3cc4ccccc4s3)nn2)s1`: 0%. In the case of `Nc1ccc(-c2cccs2)cc1NC(=O)c1ccc(-c2cn(CCc3ccsc3)nn2)s1`, the inhibition stood at 27%.

As to `Nc1ccc(-c2ccc(F)cc2)cc1NC(=O)CCc1cn(Cc2ccc3ccccc3n2)nn1`, the inhibition was 26%.

For `Nc1ccc(-c2ccc(F)cc2)cc1NC(=O)CCc1cn(CCC23CC4CC(CC(C4)C2)C3)nn1`, the inhibition was 0%. Regarding `Cc1ccc(CCn2cc(C(=O)Nc3cc(-c4ccccc4)ccc3N)nn2)cc1`, the inhibition amounted to 2%.

Take `Nc1ccc(-c2ccc(F)cc2)cc1NC(=O)CCc1cn(CCc2ccccc2)nn1`: the inhibition worked out at 37%. Then `Nc1ccc(-c2ccc(F)cc2)cc1NC(=O)CCc1cn(CCc2ccccc2Cl)nn1`, with 4%; and `Nc1ccc(-c2cccnc2)cc1NC(=O)CCc1cn(CCc2ccc(C(F)(F)F)cc2)nn1`, with 0%. Consider `COc1ccccc1CCn1cc(C(=O)Nc2cc(-c3cccs3)ccc2N)nn1`, for which the inhibition came to 6%.

As to `Nc1ccc(-c2cccs2)cc1NC(=O)c1cn(CCc2ccccc2)nn1`, the inhibition turned out to be 9%.

In the case of `Nc1ccc(-c2cccs2)cc1NC(=O)c1ccc(-c2cn(Cc3ccc4ccccc4n3)nn2)s1`, the inhibition came out at 30%. For the compound `Nc1ccc(-c2cccs2)cc1NC(=O)c1cccc(-c2cn(Cc3ccc(Oc4ccccc4)cc3)nn2)c1`, the inhibition worked out at 0%. For the compound `Cc1ccc(-n2cc(C(=O)Nc3cc(-c4cccs4)ccc3N)nn2)cc1C`, the inhibition was 0%. With `Nc1ccc(-c2ccc(F)cc2)cc1NC(=O)CCc1cn(CCc2ccccc2C(F)(F)F)nn1`, the inhibition stood at 0%. Turning to `Nc1ccc(-c2cccnc2)cc1NC(=O)CCc1cn(CCc2ccccc2Cl)nn1`, the inhibition stood at 9%. For `Nc1ccc(-c2ccccc2)cc1NC(=O)c1cn(Cc2cc3ccccc3s2)nn1`, the inhibition was determined as 0%. Consider `Nc1ccc(-c2cccs2)cc1NC(=O)CCc1cn(CCCCCC(=O)O)nn1`, for which the inhibition stood at 6%. Regarding `Nc1ccc(-c2cccs2)cc1NC(=O)c1ccc(-c2cn(CCCc3ccccc3)nn2)cc1`, the inhibition was found to be 2%. Then `Nc1ccc(-c2ccc(F)cc2)cc1NC(=O)c1cn(Cc2cc3ccccc3s2)nn1`, with 7%; and `Nc1ccc(-c2cccs2)cc1NC(=O)c1ccc(-c2cn(-c3ccccc3-c3ccccc3)nn2)cc1`, with 0%. `COc1ccc(Cn2cc(CCC(=O)Nc3cc(-c4ccsc4)ccc3N)nn2)cc1`: the inhibition was 24%. Then `Nc1ccc(-c2cccs2)cc1NC(=O)CCc1cn(Cc2cc3ccccc3s2)nn1`, with 27%; and `Nc1ccc(-c2cccs2)cc1NC(=O)c1ccc(-c2cn(Cc3ccc(-c4ccccc4)cc3)nn2)cc1`, with 0%; and `Nc1ccc(-c2cccs2)cc1NC(=O)CCc1cn(-c2ccc(I)cc2)nn1`, with 8%.

Regarding `Nc1ccc(-c2cccs2)cc1NC(=O)c1cn(/C=C/c2ccccc2)nn1`, the inhibition was 12%. On to `Cc1csc(CCn2cc(C(=O)Nc3cc(-c4ccsc4)ccc3N)nn2)n1`, for which the inhibition was 12%. For `Nc1ccc(-c2cccs2)cc1NC(=O)c1ccc(-c2cn(Cc3ccc(Oc4ccccc4)cc3)nn2)cc1`, the inhibition amounted to 0%.

On to `Nc1ccc(-c2cccs2)cc1NC(=O)c1cccc(-c2cn(CCc3ccccn3)nn2)c1`, for which the inhibition was determined as 33%.

In the case of `Nc1ccc(-c2ccccc2)cc1NC(=O)CCc1cn(Cc2cccc(C(=O)O)c2)nn1`, the inhibition is 0%. Turning to `Nc1ccc(-c2ccccc2)cc1NC(=O)CCc1cn(Cc2ccc(-c3ccccc3)cc2)nn1`, the inhibition is 0%. Next, `Nc1ccc(-c2cccnc2)cc1NC(=O)CCc1cn(-c2cccc3ccccc23)nn1`: 0%. In the case of `Nc1ccc(-c2cccs2)cc1NC(=O)c1ccc(-c2cn(CC(=O)c3ccccc3)nn2)s1`, the inhibition is 22%. Turning to `Nc1ccc(-c2ccc(F)cc2)cc1NC(=O)CCc1cn(-c2ccccc2-c2ccccc2)nn1`, the inhibition was found to be 8%. As for `Nc1ccc(-c2ccc(F)cc2)cc1NC(=O)c1cn(CCC2CCCCC2)nn1`, the inhibition was found to be 5%. Consider `Nc1ccc(-c2cccs2)cc1NC(=O)CCc1cn(-c2ccc([N+](=O)[O-])cc2)nn1`, for which the inhibition came to 15%. Then `Nc1ccc(-c2ccsc2)cc1NC(=O)c1cn(CC(=O)c2ccccc2)nn1`, with 0%.

For the compound `Nc1ccc(-c2ccc(F)cc2)cc1NC(=O)c1cn(-c2ccc(I)cc2)nn1`, the inhibition amounted to 7%. Turning to `Nc1ccc(-c2ccc(F)cc2)cc1NC(=O)c1cn(CCN2CCOCC2)nn1`, the inhibition came to 10%. `Nc1ccc(-c2cccnc2)cc1NC(=O)CCc1cn(CCc2cccc(F)c2)nn1`: the inhibition is 13%.

With `Nc1ccc(-c2cccs2)cc1NC(=O)c1cn(CCCc2ccccc2)nn1`, the inhibition was found to be 9%. `Nc1ccc(-c2ccccc2)cc1NC(=O)c1cn(-c2ccccc2-c2ccccc2)nn1`: the inhibition worked out at 0%. Consider `Nc1ccc(-c2ccccc2)cc1NC(=O)c1cn(CCc2ccccc2)nn1`, for which the inhibition turned out to be 12%.
